Results reported in patent publication US20190022225A1, “PROTOCOL FOR INCREASING LIFE EXPECTANCY IN A TEST SUBJECT” (Mayo Foundation for Medical Education and Research, priority 2015, published 2019).

Assays:
[1] = test system: p21, p16, IL-1a, CXCL-1, IL-6, IL-8 expression in senescent IMR90 cells; experiment: qPCR of senescence markers and SASP factors in irradiated senescent IMR90 cells treated with Nutlin-3a; type: cell-based, human
Experimental: Primary human fibroblast (IMR90) cells were induced to senesce by applying 10 Gy of irradiation. Seven days after irradiation (Day 0), cells were treated with 10 μM Nutlin-3a or vehicle (DMSO) for nine days (Day 9). The drug or vehicle was refreshed every three days. Drug/vehicle was removed at Day 9 and the cells were cultured for an additional three days (Day 12) in media without drug or DMSO. Cells were then collected, mRNA extracted, and cDNA prepared. Quantitative PCR (qPCR) was then performed to detect expression of various genes. Cells were also collected at Day 12 after drug/vehicle had been removed for three days. The data are presented as an average of three samples. Data were normalized to actin and depicted as a ratio to non-senescent cells.

[2] = test system: doxorubicin-induced senescent cells in p16-3MR mice; experiment: Nutlin-3a treatment of p16-3MR transgenic mice with doxorubicin-induced senescence; type: in vivo, mouse; settings: for cells with DNA damage (γH2AX positive) in lung sections: day 35, versus doxorubicin alone
Experimental: The capability of Nutlin-3a to remove senescent cells in vivo was determined in transgenic p16-3MR mice (see, e.g., International Application Publication No. WO2013/090645). The transgenic mouse comprises a p16^Ink4a promoter operatively linked to a trimodal fusion protein for detecting senescent cells and for selective clearance of senescent cells in these transgenic mice, which is illustrated in FIG. 7. The promoter, p16^Ink4a, which is transcriptionally active in senescent cells but not in non-senescent cells (see, e.g., Wang et al., J. Biol. Chem. 276:48655-61 (2001); Baker et al., Nature 479:232-36 (2011)) was engineered into a nucleic acid construct. 3MR (tri-modality reporter) is a fusion protein containing functional domains of a synthetic Renilla luciferase (LUC), monomeric red fluorescence protein (mRFP), and truncated herpes simplex virus (HSV)-1 thymidine kinase (tTK), which allows killing by ganciclovir (GCV) (see, e.g., Ray et al., Cancer Res. 64:1323-30 (2004))). The 3MR cDNA was inserted in frame with p16 in exon 2, creating a fusion protein containing the first 62 amino acids of p16, but not a full-length wild-type p16 protein. […] The p16^Ink4a gene promoter (approximately […]) was introduced upstream of a nucleotide sequence encoding a trimodal reporter fusion protein. Alternatively, a truncated p16^Ink4a promoter may be used (see, e.g., Baker et al., Nature, supra; International Application Publication No. WO2012/177927; Wang et al., supra).). Thus, the expression of 3MR is driven by the p16^Ink4a promoter in senescent cells only. The detectable markers, LUC and mRFP permitted detection of senescent cells by bioluminescence and fluorescence, respectively. The expression of tTK permitted selective killing of senescent cells by exposure to the pro-drug ganciclovir (GCV), which is converted to a cytotoxic moiety by tTK. Transgenic founder animals, which have a C57B16 background, were established and bred using known procedures for introducing transgenes into animals (see, e.g., Baker et al., Nature 479:232-36 (2011)). Female C57/BL6 p16-3MR mice were randomized into doxorubicin+Nutlin-3a treated or doxorubicin only treated groups (see FIG. 6). Senescence was induced by intraperitoneal administration of doxorubicin at 10 mg/kg to the mice ten days prior to administration of Nutlin-3a (Day −10). Nutlin-3a (25 mg/kg) was administered intraperitoneally daily from day 10 to day 24 post-doxorubicin treatment (Group=9 mice). Control mice (doxorubicin treated) were injected with equal volumes of PBS (Group=3 mice). Luminescence imaging (Xenogen Imaging system) was performed at Day 0 (i.e., 10 days post-doxorubicin treatment) as a baseline for each mouse (100% intensity).
Luminescence imaging of the mice was performed on day 7, 14, 21, 28, and 35 following the initiation of Nutlin-3a treatment. Reduction of luminescence (L) was calculated as: L=(Imaging post-Nutlin-3a treatment)/(Baseline Imaging) %. If L is greater than or equal to 100%, the number of senescent cells was not reduced. If L is less than 100%, then the number of senescent cells was reduced. Every mouse was calculated independently, and background was subtracted from each sample.
Experiments were performed to determine the effect of Nutlin-3a treatment on expression of genes associated with senescence. Groups of female C57/BL6 p16-3MR were treated as described above. Three weeks after the end of Nutlin-3a treatment (day 35), the doxorubicin treated mice (control) (N=3) and doxorubicin+Nutlin-3a-treated mice (N=6) were sacrificed. Skin and fat biopsies were collected for RNA extraction; fat biopsies were collected for detection of senescence-associated β-galactosidase; and lungs were flash frozen in cryoprotectant OCT media for cryostat sectioning. […]

## COc1ccc(C2=N[C@@H](c3ccc(Cl)cc3)[C@@H](c3ccc(Cl)cc3)N2C(=O)N2CCNC(=O)C2)c(OC(C)C)c1 [Nutlin-3a]
[1]; 10 μM, day 9
  level of p21 mRNA, ratio to non-senescent cells: approximately 90 fold
[1]; 10 μM, day 9 and day 12
  level of IL-1a mRNA: decreased only after Nutlin-3a had been removed
  levels of CXCL-1, IL-6 and IL-8 mRNA: reduced when Nutlin-3a was present and remained lower after drug removal
[1]; 10 μM, drug present (day 9)
  level of p16 mRNA: did not change
[1]; day 12, three days after drug removal
  level of p16 mRNA: decrease
[2]; 25 mg/kg intraperitoneally daily, day 10 to 24 post-doxorubicin
  luminescence associated with doxorubicin-induced senescence: reduced luminescence
[2]; day 14, day 28 and day 35 after start of treatment
  luminescence, statistical significance at time points: statistically significant decrease
[2]; day 35, relative to actin mRNA
  mRNA of SASP factors (mmp-3, IL-6) and senescence markers (p21, p16, p53) in skin and fat: reduced expression
[2]
  cells with DNA damage (γH2AX positive) in lung sections: reduced the number of cells with doxorubicin-induced DNA damage
[2]; listed as nutlin-3A
  cells with DNA damage (γH2AX positive) in lung sections: reduced the number of cells with DNA damage
[2]; three weeks after treatment, versus doxorubicin alone
  senescence-associated β-gal intensity in fat biopsies: reduced senescence-associated (SA) β-galactosidase (β-gal) intensity
